“Also recorded” adds a separate entry of the source. Like-named read-outs stand apart in the source and are kept apart here.
How the values were obtained:
pRb in Kuramochi cells = test: Western blot pRb; type: cell-based, human; details: 30-1000 nM, 24 hours
Procedure: An independent human ovarian carcinoma cell line, Kuramochi human ovarian carcinoma, was grown in RPMI-1640/1× Glutamax/10% fetal bovine serum and was plated at 300,000 cells/well in Corning 6 well tissue culture treated plates. Cells were incubated at 37° C. for 24 hours prior to addition of 2 replicates of 0.1% DMSO control and 1 replicate for each treatment. […] Cells were collected by washing each well twice with cold PBS, then scraping cells in the presence of 150 μL cold RIPA with protease and phosphatase inhibitors. Lysates were clarified by centrifugation at 14 kxg for 10 min at 4° C. and supernatants transferred to clean tubes. A BCA assay was performed to determine the protein concentration of each lysate. 30 μg of protein was mixed with sample buffer and reducing agent before being run on a 4-12% SDS-PAGE. Protein was transferred to a nitrocellulose membrane and blocked with LI-COR blocking buffer for 1 hour. Membranes were incubated overnight in primary antibody at 4° C. Following 3 washes with TBST, membranes were incubated for 45 minutes in LI-COR secondary antibodies. Following 2 washes in TBST, and one TBS wash, membranes were scanned using a LI-COR OdysseyCLx. Image studio was used for image analysis.

[1] = Respiratory safety pharmacology study; type: in vivo, rats; details: any dose level
Description: Safety pharmacology studies described more fully below included a functional observational battery (FOB) testing in a 28-day repeat-dose toxicity study in rats, electrocardiogram (ECG) evaluations in a 28-day repeat-dose toxicity study in dogs, and a single-dose respiratory safety pharmacology study in rats.

[2] = Bidirectional permeability (A-B, B-A Papp); type: in vitro ADME
human OATP1B3 = biological target: T1, human OATP1B3 (Homo sapiens, UniProt Q9NPD5); test: SLC transporter inhibition in HEK293 cells; type: in vitro ADME
T1 construct: expressed in transfected cells; host or cells: HEK293
T1 sequence (Q9NPD5 1-702): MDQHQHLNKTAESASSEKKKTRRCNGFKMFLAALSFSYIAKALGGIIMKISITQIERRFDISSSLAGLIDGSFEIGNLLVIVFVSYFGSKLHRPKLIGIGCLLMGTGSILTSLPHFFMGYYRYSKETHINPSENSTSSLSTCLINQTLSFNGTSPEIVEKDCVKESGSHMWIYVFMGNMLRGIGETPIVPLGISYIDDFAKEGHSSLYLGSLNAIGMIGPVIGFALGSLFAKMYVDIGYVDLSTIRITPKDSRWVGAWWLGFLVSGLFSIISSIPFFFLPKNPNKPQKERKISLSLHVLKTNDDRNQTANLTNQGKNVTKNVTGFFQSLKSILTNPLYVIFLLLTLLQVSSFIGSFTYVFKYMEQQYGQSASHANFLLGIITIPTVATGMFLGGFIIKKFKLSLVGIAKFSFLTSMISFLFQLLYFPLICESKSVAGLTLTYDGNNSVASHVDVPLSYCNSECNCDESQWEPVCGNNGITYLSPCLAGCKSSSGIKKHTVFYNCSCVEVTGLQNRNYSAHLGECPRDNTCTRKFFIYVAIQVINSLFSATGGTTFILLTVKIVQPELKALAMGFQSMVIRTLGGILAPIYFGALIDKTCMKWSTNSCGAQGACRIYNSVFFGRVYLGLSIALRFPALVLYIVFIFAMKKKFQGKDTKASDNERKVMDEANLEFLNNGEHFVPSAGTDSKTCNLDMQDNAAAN

human OCT2 = biological target: T2, human OCT2 (Homo sapiens, UniProt O15244); test: SLC transporter inhibition in HEK293 cells; type: in vitro ADME
T2 construct: expressed in transfected cells; host or cells: HEK293
T2 sequence (O15244 1-555): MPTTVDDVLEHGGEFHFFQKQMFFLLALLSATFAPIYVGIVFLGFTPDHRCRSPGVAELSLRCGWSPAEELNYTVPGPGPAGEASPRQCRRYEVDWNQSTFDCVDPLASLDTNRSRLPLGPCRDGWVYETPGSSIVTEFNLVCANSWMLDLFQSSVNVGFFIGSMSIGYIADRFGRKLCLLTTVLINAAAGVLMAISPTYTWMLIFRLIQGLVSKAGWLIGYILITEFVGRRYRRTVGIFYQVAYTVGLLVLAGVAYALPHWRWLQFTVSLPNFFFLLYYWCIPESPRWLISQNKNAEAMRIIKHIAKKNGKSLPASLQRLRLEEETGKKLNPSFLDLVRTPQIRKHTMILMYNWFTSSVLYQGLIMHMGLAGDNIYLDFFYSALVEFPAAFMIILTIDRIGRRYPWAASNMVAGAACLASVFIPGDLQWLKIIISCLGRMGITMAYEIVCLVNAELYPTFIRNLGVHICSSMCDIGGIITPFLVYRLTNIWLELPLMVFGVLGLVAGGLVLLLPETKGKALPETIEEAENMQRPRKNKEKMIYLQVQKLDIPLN

[3] = system: CCNE1, CCNE2 in Hs68 cells; test: Western blot cell cycle proteins; type: cell-based, human; details: 24 hours
Procedure: The H69 and H526 human lung carcinoma cell lines were grown in RPMI-1640/1× Glutamax/10% fetal bovine serum while the Hs68 Normal foreskin fibroblast cell line was grown in DMEM-high glucose/1× Glutamax/10% fetal bovine serum. […] Cells were collected by washing each well twice with cold PBS, then scraping cells in the presence of 150 μL cold RIPA with protease and phosphatase inhibitors. Lysates were clarified by centrifugation at 14,000×g for 10 min at 4° C. and supernatants transferred to clean tubes. A BCA assay was performed to determine the protein concentration of each lysate. A total of 30 μg of protein was mixed with sample buffer and reducing agent before being run on a 4-12% SDS-PAGE. Protein was transferred to a nitrocellulose membrane and blocked with LI-COR blocking buffer for 1 hour. Membranes were incubated overnight in primary antibody at 4° C. Following 3 washes with TBS-T, membranes were incubated for 45 minutes in LI-COR secondary antibodies. Following 2 washes in TBS-T, and one TBS wash, membranes were scanned using a LI-COR OdysseyCLx. Image studio was used for image analysis.

Question: With `NS(=O)(=O)c1ccc(Nc2ncc3cc4n(c3n2)C2(CCCCC2)C(=O)NN4)cc1` [Compound I] as the molecule, how does the pRb levels (pRb in Kuramochi cells) read?
Answer: Its pRb levels is “decreases pRb levels in a dose-dependent manner”.

Question: What about the respiratory function [1] of the same molecule?
Answer: Its respiratory function is “did not affect; also recorded: not affected”.

Question: And the permeability [2]?
Answer: Its permeability is “moderate permeability”.

Question: And the Papp A→B ([2]; not told)?
Answer: Its Papp A→B is 3.28 to 6.67 ×10⁻⁶ cm/s.

Question: And the Papp B→A ([2]; not told)?
Answer: Its Papp B→A is 42 to 68.3 ×10⁻⁶ cm/s.

Question: What about the “Maximum Percent inhibition” value (human OATP1B3; OATP1B3, HEK293 cells) of the same molecule?
Answer: The value was 91%.

Question: And the IC50 (human OATP1B3; OATP1B3, HEK293 cells, read-out: IC50)?
Answer: Its IC50 is 6.22 µM.

Question: What about the IC50 (human OATP1B3; read-out: OATP1B3 IC50) of the same molecule?
Answer: The IC50 was 6.22 µM.

Question: And the “Maximum Percent inhibition” value (human OCT2; OCT2, HEK293 cells)?
Answer: Its value is 49%.

Question: And the IC50 (human OCT2; OCT2, HEK293 cells, estimated, read-out: IC50)?
Answer: The IC50 was 17.1 µM.

Question: What about the IC50 (human OCT2; read-out: OCT2 IC50) of the same molecule?
Answer: Its IC50 is 17.1 µM.

Question: And the “cyclin E (CCNE1, CCNE2) levels” value [3]?
Answer: Its value is “increase of cyclin E (CCNE1, CCNE2) amplification”.
